# Results as given in patent US20070072251A1, “In vivo imaging using peptide derivatives” (CTT Cancer Targeting Technologies OY, priority 2003, published 2007).
# Where a SMILES comes first, the peptide text is derived from it. Bridges are numbered along the chain shown (N, C = ends). Where no end group is shown, it is not given here. The star is where a group is joined. DTPA = O=C(O)CN(CCN(CC(=O)O)CC(=O)O)CCN(CC(=O)O)CC(=O)*
# Columns and labels:
# [1] = Tumor targeting of radiolabelled LLG derivatives in mouse model of human myelomonocytic leukemia (gamma imaging, tissue counting); format: in vivo; conditions: mouse, in vivo, total radioactivity; at 24 hrs, intravenous injection, U937 model; read-out: absolute tumor-to-blood ratio
# From the text: (§1) I-125 label, mouse model of human myelomonocytic leukemia. Planar gamma image. In these figures animals have been injected with radiolabelled peptide and anesthesized animals have been imaged under gamma camera (pinhole collimator, Picker SX-300 gamma camera).
# (§2) The radiolabelled peptide derivatives were imaged at different time points using gamma camera in order to study tumor uptake in vivo as a function of time. After last imaging, tumor tissue were extirpated and counted for radioactivity. Detailed microdistribution was studied using quantitative autoradiography.
# (§3) The peptide was labelled using In-111 label and direct iodination, as well as cDTPA.
# (§4) The peptide was labelled using In-111 label and direct iodination and cDTPA. […] In this model absolute tumor-to-blood ratio was 4.7 at 24 hrs.
# [2] = test system: human myelomonocytic leukemia U937 cell line; experiment: as above; format: in vivo
# From the text: as §1, §2, §3, §4
# E. coli abscess = experiment: LLG targeting to E. coli abscess in rabbits (gamma camera imaging, gamma-counter biodistribution); format: in vivo, New Zealand White rabbits
# Method: (§5) In this experiment, the targeting of LLG to sites of inflammation was examined in Wistar rats and New Zealand White rabbits, by inducing an abscess with approximately 1×10^9 colony-forming units of Staphylococcus aureus or Escherichia coli injected into the left tight muscle. During the procedure, the animals were anesthetized. After 24 hours, when swelling of the muscle was apparent, the In-111 radiolabeled peptide CPCFLLGCC was injected i.v. and accumulation of the peptide was followed with gamma camera imaging. The peptide was tested using 3 animals in both animal species.
# The animals were followed-up for 4 hours. In late images urinary excretion disturbed the imaging, but signal-to-background ratio remained high. No other targets than abscess could be detected. Imaging would have been even more successful, if the rabbits would have been catheterized (or bladder emptied) before imaging session.
# (§6) After the imaging period, animals were sacrificed, various tissues were collected and the accumulated radioactivity was measured using a gamma-counter. In FIG. 7A, the amount of accumulated peptide (expressed as percentage of injected dose/weight of the tissue measured; % ID/g) is shown for certain tissues of rabbits (mean of 3 animals). […] In these animals, the corresponding ratios were 4.5 and 2.0 for muscle and blood, respectively.
# S. aureus abscess = experiment: LLG targeting to S. aureus abscess in rats (gamma camera imaging, gamma-counter biodistribution); format: in vivo, Wistar rats
# Method: as §5
# In rats assay, animals were followed-up for 2 hours after peptide injection. […] However, signal-to-background ratio remained high, and as in rabbits, no other targets than abscess could be detected.
# as §6
# [3] = Biodistribution of I-125 labelled LLG in mice; format: in vivo; conditions: 30 min and 180 min after tail vein injection
# Method: LLG (YADGACPCFLLGCC) was labelled with I-125, and the purified peptide (40 μg; ˜500 kBq) was injected into the tail vein of mice in the volume of […]. At 30 min and 180 min after peptide injection, the mice were sacrificed and their blood and tissues were collected to measure the radioactivity. Results are expressed as percentage of injected dose per 1.0 g tissue (% D/g) (FIG. 11). All values are indicated as the mean±SD of 3 mice.
# integrin I-domain = experiment: BIACORE affinity of LLG to integrin; format: binding; conditions: 134 nM-134 μM; not detectable due to the small size of the peptide
# Method: We examined the affinity of LLG to integrin using BIACORE. In this method, purified integrin I-domain was immobilized on the gold coated carboxymethylated dextran chip. The immobilization succeeded, and in various channels a RU between 2000-4000 was obtained. Various concentrations (3.3 nM-33 μM) of LLG-GST or GST were tested for their ability to bind to the I-domain. Reaction buffer was 10 mM HEPES (pH 7.4)-150 mM NaCl, with or without 1 mM MgCl2. […] Addition of detergent P20 0.05% could not diminish the background.
# In another set of experiment, plain LLG peptide was used for affinity testing. The concentration of the tested peptide varied between 134 nM-134 μM. […] The BIACORE method is currently under development, and we intend to study the affinity again with a peptide coupled to a higher molecular weight, inert carrier molecule.
# [4] = test system: accumulation of cells in peritoneal cavity; experiment: Inhibition of leukocyte migration into thioglycolate inflamed peritoneal cavity; format: in vivo, Balb/c mice; conditions: 1 mg/kg iv
# Method: To induce inflammation, female Balb/c mice were injected intraperitoneally with 1 ml of 3% Thioglycolate Broth (TG), three animals/group. Mice in the control group were injected iv with plain vehicle PBS-10% DMSO, and mice in the peptide group were injected iv with 1 mg/kg YADGACPCFLLGCC in PBS-10% DMSO. After 60 or 120 minutes, the mice were sacrificed. Cells in peritoneal cavity were collected by lavage with 5 ml PBS-5 mM EDTA, and counted with a hemocytometer.
# In this experiment different cell populations were not distinguished. However, once again, YADGACPCFLLGCC reduced the accumulation of cells in experimental inflammation in vivo by 78% after 60 minutes and 52% after 120 minutes (FIG. 9).
# THP-1 cell line = experiment: Blocking of LLG-GFP binding to THP-1 cell line; format: cell-based
# Method: What has been observed is that at 50 μM YLLG concentration 95% of LLG-GFPs binding is been blocked. When concentrations are been lowered to 20 μM still 70% inhibition occurs. […] However, due to the unspecific binding of peptide to the plastic walls of the container and the relative high concentrations of LLG-GFP needed for signal nanomolar scale, experiments can not been performed with this setup on its current already un-optimized state.
# [5] = % ID/g, mean of 3 animals, after imaging period
molecule,measurement,setting,value
"CC(C)C[C@@H]1NC(=O)[C@H](CC(C)C)NC(=O)[C@H](Cc2ccccc2)NC(=O)[C@@H]2CSSC[C@@H](C(=O)O)NC(=O)[C@H](CSSC[C@H](NC(=O)[C@H](C)NC(=O)CNC(=O)[C@H](CC(=O)O)NC(=O)[C@H](C)NC(=O)[C@H](Cc3ccc(O)cc3)NC(=O)CN(CCN(CCN(CC(=O)O)CC(=O)O)CC(=O)O)CC(=O)O)C(=O)N3CCC[C@H]3C(=O)N2)NC(=O)CNC1=O [In-111-YADGA LLG, metal not drawn] ({DTPA}-YADGACPCFLLGCC-OH; disulfide 6-13, 8-14 (inferred); N-terminus and C-terminus assumed)",tissue to tissue ratio at 24 h,[1],4.7
same,tumor targeting (gamma image),"[2]; at 3 hrs after intravenous injection, FIG. 1",clearly tumor targeting
"In-111 radiolabeled peptide CPCFLLGCC: In-111 radiolabeled peptide CPCFLLGCC, cDTPA chelation (cysteine pairing not given here; also: In-111 radiolabel, cDTPA chelation)",signal-to-background ratio in late images,E. coli abscess,remained high
same,accumulation in abscess compared to blood,E. coli abscess; [5],2.3 fold
same,accumulation in abscess compared to muscle,E. coli abscess; [5],21.7 fold
same,abscess targeting in gamma camera imaging,"E. coli abscess; E. coli abscess in thigh muscle, i.v., followed 4 hours","specific targeting into tight muscle, which was clearly visible within one hour"
same,clearance,E. coli abscess; i.v.,rapid clearance through kidneys
same,signal-to-background ratio in late images,S. aureus abscess,remained high
same,abscess targeting in gamma camera imaging,"S. aureus abscess; S. aureus abscess, followed 2 hours",specific targeting
same,accumulation ratio abscess to blood,S. aureus abscess; after imaging period,2.0
same,accumulation ratio abscess to muscle,S. aureus abscess; after imaging period,4.5
I-125-YADGA LLG peptide: YADGACPCFLLGCC labelled with I-125 by direct iodination (cysteine pairing not given here; also: I-125 label by direct iodination),tumor targeting (planar gamma image),"[2]; at 24 hrs after intravenous injection, FIGS. 2-3",tumor targeting
same,clearance,[3],rapid clearance through kidneys
same,tissue accumulation,[3]; 40 μg,did not accumulate in any tissue
"CPCFLLGCC [nonapeptide with two disulfide bridges, ligand to leukocyte β2 integrins]",specific binding to immobilized integrin I-domain,integrin I-domain,no specific binding could be detected
YADGACPCFLLGCC,reduction of accumulation of cells in experimental inflammation,[4]; after 60 minutes,78%
same,reduction of accumulation of cells in experimental inflammation,[4]; after 120 minutes,52%
same,inhibition of LLG-GFPs binding,THP-1 cell line; 20 μM YLLG,70%
same,LLG-GFPs binding blocked,THP-1 cell line; 50 μM YLLG,95%
same,IC 50 of blocking LLG-GFP binding,THP-1 cell line; judged from FIG. 12,on nanomolar scale
